Measurements: ChEMBL document CHEMBL1150330, “Muscarinic antagonists with multiple stereocenters: Synthesis, affinity profile and functional activity of isomeric 1-methyl-2-(2,2-alkylaryl-1,3-oxathiolan-5-yl)pyrrolidine sulfoxide derivatives” (Bioorg Med Chem, 2008)

Columns and labels:
[1] = molecular target: Muscarinic acetylcholine receptor M3 (Homo sapiens, UniProt P20309); test: Displacement of [3H]NMS from human muscarinic M3 receptor expressed in CHO cells; format: cell-based
[2] = molecular target: T1, Muscarinic acetylcholine receptor M4 (Homo sapiens, UniProt P08173); test: Displacement of [3H]NMS from human muscarinic M4 receptor expressed in CHO cells; format: cell-based
T1 sequence (P08173 whole entry): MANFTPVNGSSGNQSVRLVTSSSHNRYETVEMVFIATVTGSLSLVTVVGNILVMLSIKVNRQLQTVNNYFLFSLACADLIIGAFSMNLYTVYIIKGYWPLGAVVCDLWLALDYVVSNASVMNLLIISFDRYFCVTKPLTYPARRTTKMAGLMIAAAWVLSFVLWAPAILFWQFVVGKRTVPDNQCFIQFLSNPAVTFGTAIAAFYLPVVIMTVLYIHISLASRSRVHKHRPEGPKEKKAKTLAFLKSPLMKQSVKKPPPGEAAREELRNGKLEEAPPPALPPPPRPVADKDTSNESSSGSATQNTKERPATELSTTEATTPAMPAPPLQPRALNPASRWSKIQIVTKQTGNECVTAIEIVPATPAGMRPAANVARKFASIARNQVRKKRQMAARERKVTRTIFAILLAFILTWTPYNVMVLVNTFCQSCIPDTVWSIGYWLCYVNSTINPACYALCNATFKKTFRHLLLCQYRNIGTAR

[3] = Antagonist activity against muscarinic M2 receptor in guinea pig atria assessed as effect on electrically-stimulated atria; format: functional, Cavia porcellus
[4] = molecular target: T2, Muscarinic acetylcholine receptor M2 (Homo sapiens, UniProt P08172); test: Displacement of [3H]NMS from human muscarinic M2 receptor expressed in CHO cells; format: cell-based
T2 sequence (P08172 whole entry): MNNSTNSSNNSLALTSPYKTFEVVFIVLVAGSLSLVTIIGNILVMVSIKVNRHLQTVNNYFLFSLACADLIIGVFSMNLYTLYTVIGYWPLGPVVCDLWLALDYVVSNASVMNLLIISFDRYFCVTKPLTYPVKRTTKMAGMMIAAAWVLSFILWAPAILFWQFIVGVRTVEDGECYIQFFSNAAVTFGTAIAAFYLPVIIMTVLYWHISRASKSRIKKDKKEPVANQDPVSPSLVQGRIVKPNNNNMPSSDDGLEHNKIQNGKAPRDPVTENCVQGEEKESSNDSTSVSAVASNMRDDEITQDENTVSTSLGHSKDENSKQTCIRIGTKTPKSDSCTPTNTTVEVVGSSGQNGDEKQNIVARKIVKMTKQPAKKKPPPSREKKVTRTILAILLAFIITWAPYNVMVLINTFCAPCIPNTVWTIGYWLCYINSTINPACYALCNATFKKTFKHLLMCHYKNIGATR

[5] = molecular target: T3, Muscarinic acetylcholine receptor M1 (Homo sapiens, UniProt P11229); test: Displacement of [3H]NMS from human muscarinic M1 receptor expressed in CHO cells; format: cell-based
T3 sequence (P11229 whole entry): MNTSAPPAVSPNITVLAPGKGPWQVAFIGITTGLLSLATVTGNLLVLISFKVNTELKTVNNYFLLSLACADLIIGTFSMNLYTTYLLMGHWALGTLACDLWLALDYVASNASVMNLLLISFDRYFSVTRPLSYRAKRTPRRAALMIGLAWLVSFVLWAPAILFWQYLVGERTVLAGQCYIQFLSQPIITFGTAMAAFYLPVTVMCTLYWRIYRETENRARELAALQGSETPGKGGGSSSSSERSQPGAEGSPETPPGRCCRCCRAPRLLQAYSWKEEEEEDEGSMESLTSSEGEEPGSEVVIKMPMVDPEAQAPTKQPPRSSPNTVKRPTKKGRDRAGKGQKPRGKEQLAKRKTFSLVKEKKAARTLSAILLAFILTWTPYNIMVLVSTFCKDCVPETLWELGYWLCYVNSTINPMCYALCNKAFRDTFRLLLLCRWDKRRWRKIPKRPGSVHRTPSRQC

[6] = Antagonist activity against muscarinic M3 receptor in guinea pig ileum assessed as effect on ileum tension; format: functional, Cavia porcellus
[7] = molecular target: T4, Muscarinic acetylcholine receptor M5 (Homo sapiens, UniProt P08912); test: Displacement of [3H]NMS from human muscarinic M5 receptor expressed in CHO cells; format: cell-based
T4 sequence (P08912 whole entry): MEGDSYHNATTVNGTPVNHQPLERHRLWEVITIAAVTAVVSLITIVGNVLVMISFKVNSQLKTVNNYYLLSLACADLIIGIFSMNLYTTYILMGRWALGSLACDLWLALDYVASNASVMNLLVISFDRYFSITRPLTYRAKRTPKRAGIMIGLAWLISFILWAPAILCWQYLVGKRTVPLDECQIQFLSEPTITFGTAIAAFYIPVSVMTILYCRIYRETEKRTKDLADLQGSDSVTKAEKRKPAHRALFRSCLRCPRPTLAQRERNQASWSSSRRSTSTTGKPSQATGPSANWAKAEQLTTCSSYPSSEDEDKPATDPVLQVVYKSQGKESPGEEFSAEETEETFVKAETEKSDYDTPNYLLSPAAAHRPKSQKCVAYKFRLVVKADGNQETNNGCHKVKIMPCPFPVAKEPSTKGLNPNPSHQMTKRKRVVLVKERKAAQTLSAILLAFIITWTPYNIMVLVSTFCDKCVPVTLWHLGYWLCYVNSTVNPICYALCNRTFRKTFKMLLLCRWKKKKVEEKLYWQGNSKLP

[8] = Antagonist activity against muscarinic M4 receptor in guinea pig lung strip assessed as effect on electrically-stimulated contraction; format: functional, Cavia porcellus

Muscarinic acetylcholine receptor M3, sequence (P20309 whole entry): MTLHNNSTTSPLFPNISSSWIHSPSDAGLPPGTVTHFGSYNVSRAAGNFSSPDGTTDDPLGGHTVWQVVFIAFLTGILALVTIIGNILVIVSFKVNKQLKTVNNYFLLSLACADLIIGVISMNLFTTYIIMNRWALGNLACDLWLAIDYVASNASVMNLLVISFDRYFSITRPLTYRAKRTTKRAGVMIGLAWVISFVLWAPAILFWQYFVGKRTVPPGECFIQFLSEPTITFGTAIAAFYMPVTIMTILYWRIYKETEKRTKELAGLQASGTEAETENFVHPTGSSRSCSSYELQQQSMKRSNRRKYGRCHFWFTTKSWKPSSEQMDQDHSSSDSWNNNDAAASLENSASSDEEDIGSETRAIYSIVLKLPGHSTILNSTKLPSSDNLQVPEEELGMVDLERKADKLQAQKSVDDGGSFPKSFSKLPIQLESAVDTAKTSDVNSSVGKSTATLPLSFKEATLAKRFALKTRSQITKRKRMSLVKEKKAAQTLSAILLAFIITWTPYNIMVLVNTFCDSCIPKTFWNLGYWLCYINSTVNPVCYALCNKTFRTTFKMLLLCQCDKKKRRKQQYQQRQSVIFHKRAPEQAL

| Ki [1] [nM] | Ki [2] [nM] | Ki [4] [nM] | Ki [5] [nM] | Ki [7] [nM] | Compound | pKb [3] | pKb [6] | pKb [8] |
| --- | --- | --- | --- | --- | --- | --- | --- | --- |
| 4.17 | 15.8 | 17.8 | 3.02 | 3.02 | C[N+]1(C)CCC[C@H]1[C@H]1C[S+]([O-])[C@@](c2ccccc2)(C2CCCCC2)O1.[I-] (stereo in doubt; (+)-13) | 7.81 | 8.67 | 6.37 |
| 513 | 513 | 229 | 74.1 | 355 | CN1CCC[C@@H]1[C@@H]1C[S+]([O-])C(c2ccccc2)(c2ccccc2)O1 (stereo in doubt; (-)-4) | 7.27 | 6.95 | 5.75 |
| 195 | 355 | 107 | 79.4 | 275 | CN1CCC[C@@H]1[C@@H]1C[S+]([O-])[C@](c2ccccc2)(C2CCCCC2)O1 (stereo in doubt; (-)-6) | 7.34 | 7.39 | 7.24 |
| 324 | 603 | 550 | 155 | 331 | C[N+]1(C)CCC[C@H]1[C@H]1C[S+]([O-])[C@](c2ccccc2)(C2CCCCC2)O1.[I-] (stereo in doubt; (-)-14) | 6.03 | 6.68 | 5.24 |
| 6.92 | 19.1 | 21.4 | 6.92 | 14.1 | C[N+]1(C)CCC[C@@H]1[C@@H]1C[S+]([O-])[C@@](c2ccccc2)(C2CCCCC2)O1.[I-] (stereo in doubt; (+)-14) | 7.98 | 9 | 7.59 |
